From patent US9125413B1, “Nematicide composition comprising CED-4 peptide” (California State University Fresno, priority 2014, dated 2015)

B1: CED-4: 549 amino acid C. elegans protein (SEQ. ID 1, GenBank CAA48781.1), about 62 KD, produced recombinantly in E. coli; fed as CED-4 producing bacteria (protein)
chain: MLCEIECRALSTAHTRLIHDFEPRDALTYLEGKNIFTEDHSELISKMSTRLERIANFLRIYRRQASELGPLIDFFNYNNQSHLADFLEDYIDFAINEPDLLRPVVIAPQFSRQMLDRKLLLGNVPKQMTCYIREYHVDRVIKKLDEMCDLDSFFLFLHGRAGSGKSVIASQALSKSDQLIGINYDSIVWLKDSGTAPKSTFDLFTDILLMLKSEDDLLNFPSVEHVTSVVLKRMICNALIDRPNTLFVFDDVVQEETIRWAQELRLRCLVTTRDVEISNAASQTCEFIEVTSLEIDECYDFLEAYGMPMPVGEKEEDVLNKTIELSSGNPATLMMFFKSCEPKTFEKMAQLNNKLESRGLVGVECITPYSYKSLAMALQRCVEVLSDEDRSALAFAVVMPPGVDIPVKLWSCVIPVDICSNEEEQLDDEVADRLKRLSKRGALLSGKRMPVLTFKIDHIIHMFLKHVVDAQTIANGISILEQRLLEIGNNNVSVPERHIPSHFQKFRRSSASEMYPKTTEETVIRPEDFPKFMQLHQKFYDSLKNFACC

Columns and labels:
Type in all cases: in vivo, Caenorhabditis elegans
[1] = system: C. elegans nematodes at the L1 stage; experiment: Nematicide efficacy of CED-4 peptides, 96-well incubation of C. elegans L1, viability by probe touch; conditions: for Percentage % Alive / Percentage % Dead (mortality rate) / # of nematodes Alive in all combined successful experiments / # of nematodes Dead in all combined successful experiments: three days, about 37° C.
Experimental: (§1) Assays were performed using 96-well plates. C. elegans nematodes at the L1 stage (refer to FIG. 1) were incubated in each of the 96 wells for three days at about 37° C. at about 0.8 mg/ml peptide concentration for each tested CED-4 peptide. Each of the selected CED-4 peptides were diluted in distilled water to 0.8 mg/ml peptide concentration. Nematodes—numbering between two nematodes and four nematodes—averaging about three nematodes were incubated in 100 μl of CED-4 peptide solution at about 0.8 mg/ml concentration in each well. After a three-day incubation period, the exposed C. elegans nematodes were checked for viability under a dissecting microscope.
The percentage of dead C. elegans from all of the successful experiments is also referred to as the “mortality rate.”
(§2) Each separate well containing nematodes was considered an independent trial experiment. A well in which all of the incubated nematodes were either clearly alive or clearly dead at the end of the incubation period was recorded as one successful experiment. A well in which some or all of the incubated nematodes could not clearly be determined as alive or dead at the end of the incubation period was recorded as one unsuccessful experiment. At a concentration of about 0.8 mg/ml, nine trial experiments were carried out for each of the twelve designed CED-4 peptides.
as §1, with “0.4” for “0.8”
as §2, with “0.4” for “0.8”, “eight” for “nine”

[2] = system: C. elegans wild-type (N2 strain) nematodes; experiment: Fecundity of C. elegans wild-type nematodes fed E. coli producing CED-4
Experimental: (§3) Constructed expression cassettes generate CED-4 protein in bacteria. […] In this experiment, the ced-4 gene was sub-cloned into the pBAD-DEST49 vector. The pBAD-DEST49-ced-4 construct, and the pBAD-DEST49 empty vector were tested for synthesis of the protein CED-4. The E. coli bacteria strain (TOP 10 chem.) was grown, and once the optical density OD600 reached 0.5, the bacteria was induced by adding L-Arabinose 20% and incubated for four hours at 37° C., 226 rpm in rotary shaker (C24, incubator shaker, Edison, N.J. USA). The production of CED-4 protein was analyzed by SDS 10% acrylamide gel and commassie blue staining.
The genes ced-4 and ced-3 are required for PCD in somatic cells of C. elegans, and a loss-of-function (lf) mutation in any one of them results in increased survival rates of cells that would otherwise be eliminated by PCD. In the experiment summarized by FIG. 5, bacteria carrying the ced-4 gene construct and bacteria carrying an empty vector were grown as described above in Section E, and used to feed C. elegans wild-type nematodes, mutant C. elegans ced-3 nematodes, and mutant C. elegans ced-4 nematodes at L1/L2 stages (refer to FIG. 1). For the experiment described in FIG. 5, C. elegans wild-type (wt), ced-3 (n717) and ced-4 (n1162) strains were synchronized, and the hatched nematodes were raised on a diet consisting of E. coli bacteria producing CED-4. Both nematodes and bacteria were sustained on NGM media and incubated at a temperature between 25° C. and 28° C.
(§4) The effects of CED-4 ingestion on all three different strains of C. elegans used were quantified by population size throughout several generations. After the hatched nematodes fed on either the control bacteria or the CED-4 producing bacteria for 72 hours, the nematodes in each experiment were scored for fecundity over the course of 120 hrs. Fecundity was measured by counting the number of hatched offspring. There were ten experiments replicated for each of the three analyzed C. elegans strains.

[3] = system: C. elegans ced-3 (n717) mutant nematodes; experiment: Fecundity of ced-3 mutant C. elegans fed E. coli producing CED-4
Experimental: as §3
(§5) The genes ced-4 and ced-3 are required for PCD in somatic cells of C. elegans, and a loss-of-function (lf) mutation in any one of them results in increased survival rates of cells that would otherwise be eliminated by PCD. […]
as §4

[4] = system: C. elegans ced-4 (n1162) mutant nematodes; experiment: Fecundity of ced-4 mutant C. elegans fed E. coli producing CED-4
Experimental: as §3, §5, §4

[5] = peptide concentration of 0.4 mg/ml
[6] = peptide concentration of 0.8 mg/ml
[7] = versus non-CED-4 producing bacteria

Row | Molecule | Percentage % Alive ([1]; 0.4 mg/ml) | Percentage % Dead (mortality rate) ([1]; 0.4 mg/ml) | Percentage % Alive ([1]; 0.8 mg/ml) | Percentage % Dead (mortality rate) ([1]; 0.8 mg/ml) | # of nematodes Alive in all combined successful experiments ([1]; 0.4 mg/ml) | # of nematodes Dead in all combined successful experiments ([1]; 0.4 mg/ml) | # of nematodes Alive in all combined successful experiments ([1]; 0.8 mg/ml) | # of nematodes Dead in all combined successful experiments ([1]; 0.8 mg/ml) | nematicide efficacy [1, 5] | nematicide efficacy [1, 6] | also measured
1 | H-ALLSGKRMPVLTFKI-OH [Peptide 10] | 30% | 70% | 66.7% | 33.3% |  |  |  |  |  |  | 
2 | H-DLLRPVVIAPQFSRQ-OH [Peptide 2] | 92.3% | 7.7% | 0% | 100% |  |  |  |  |  |  | 
3 | H-DVEISNAASQTCEFIEVTSLE-OH [Peptide 7] | 100% | 0% | 100% | 0% | 19 | 0 | 18 | 0 | not associated with a high number of dead nematodes | not associated with a high number of dead nematodes | 
4 | H-FPKFMQLHQKFY-OH [Peptide 12] | 33.3% |  | 0% |  |  |  | 0 |  |  |  | 
5 | H-LVGVECITPYSYKSLAMALQR-OH [Peptide 9] | 100% | 0% | 100% | 0% | 18 | 0 | 8 | 0 | not associated with a high number of dead nematodes | not associated with a high number of dead nematodes | 
6 | H-MMFFKSCEPKTFEKMAQLNNKLESR-OH [Peptide 8] | 90.90% | 9.09% | 100% | 0% | 10 |  | 2 | 0 |  | not associated with a high number of dead nematodes | 
7 | H-QSHLADFLEDYIDFAINE-OH [Peptide 1] | 100% | 0% |  |  | 14 | 0 |  |  | not associated with a high number of dead nematodes | not associated with a high number of dead nematodes | 
8 | H-RQMLDRKLLLGNVPKQMTC-OH [Peptide 3] | 40% | 60% | 0% | 100% |  |  |  | 20 |  |  | 
9 | H-TCYIREYHVDRVI-OH [Peptide 4] | 64.28% |  | 50% |  |  |  |  |  |  |  | 
10 | H-TSVVLKRMICNALI-OH [Peptide 6] | 100% | 0% | 100% | 0% | 9 | 0 | 9 | 0 | not associated with a high number of dead nematodes | not associated with a high number of dead nematodes | 
11 | H-VDAQTIANGISILEQRL-OH [Peptide 11] | 100% | 0% | 70% | 30% | 22 | 0 |  |  | not associated with a high number of dead nematodes |  | 
12 | NH3—ILLMLKSEDDLLNF-COOH (H-ILLMLKSEDDLLNF-OH) [Peptide 5, ID No. 1] |  |  |  |  |  |  |  |  | not associated with a high number of dead nematodes | not associated with a high number of dead nematodes | 
13 | bovine serum albumin [BSA, reference compound] | 100% |  | 100% |  | 21 | 0 | 26 | 0 |  |  | 
14 | B1 |  |  |  |  |  |  |  |  |  |  | number of hatched offspring (mean) ([2]; 2 wild-type embryos per experiment, fed bacteria expressing CED-4 72 hours, fecundity scored over 120 hrs, ten experiments): about 115 hatched offspring; increase in rate of cell death ([2]; wild-type fed bacteria expressing CED-4 for 6 days): approximately 2 fold; offspring produced relative to those fed bacteria containing empty expression vectors ([2]; wild-type, CED-4 fed, t-test p≦0.01): less than 50%; reduction in fecundity ([2]; wild-type, ingesting bacteria expressing CED-4): 50%; number of hatched offspring (mean) ([3]; 2 ced-3 mutant embryos per experiment, ingesting CED-4 producing bacteria, ten experiments): about 220 hatched offspring; decrease in ced-3 mutant fecundity due to exogenous CED-4 [3, 7]: statistically insignificant; number of hatched offspring (mean) ([4]; 2 ced-4 mutant embryos per experiment, exposed to CED-4 producing bacteria, ten experiments): about 236 hatched offspring; decrease in ced-4 mutant fecundity due to exogenous CED-4 [4, 7]: statistically insignificant
